For 14 compounds, IC50 results are on record in patent US20250282799A1, “SUBSTITUTED PYRIDO[4,3-d]PYRIMIDINES AS KRAS MODULATORS” (Alterome Therapeutics, Inc., priority 2023, published 2025).

pIC50: −log10 of the molar value. A value given as a limit tells only on which side of the number the result lay.

The first test relates to KRAS G12V dependent lung adenocarcinoma cell line, NCI-H441. Nature of the test: Cellular pERK (Thr202/Tyr204) FRET/HTRF assay. Type of test: cell-based. The conditions noted are these: Homo sapiens, NCI-H441, cellular pERK (Thr202/Tyr204) HTRF, NCI-H441 cells. The source says: “Ras” refers to a protein in the Ras superfamily of small GTPases, such as in the Ras subfamily. […] The Ras proteins play a critical role in the regulation of cell behaviors, including proliferation, differentiation, and survival. […] KRAS G12V, G12D, and G12S variants are common in human cancers and Ras inhibitors binding in or near the Switch II pocket may provide mutant binding selectivity. RAS mutations are known to be often associated with pancreatic, colorectal and non-small-cell lung carcinomas (Lone, A. M. et al. J. Am. Chem. Soc. 2011,133, 11665-74, which is entirely incorporated herein by reference; Dillon, M. B.; Bachovchin, D. A.; Brown, S. J.; Finn, M. G.; Rosen, H.; Cravatt, B. F.; Mowen, K. A. ACS Chem. Biol. 2012, 7, 1198-204, which is entirely incorporated herein by reference; Bachovchin, D. A.; Brown, S. J.; Rosen, H.; Cravatt, B. F. Nat. Biotechnol. 2009, 27, 387-94, Ostrem, J. M.; Peters, U.; Sos, M. L.; Wells, J. A.; Shokat, K. M. Nature 2013, 503, 548-551. Ryan M. B. and Corcoran R. B, Nat. Rev Clin Onco. 2018, 11, 709-720.). Ras proteins are key members in the Ras/Raf/Mitogen-activated protein kinase (MAPK) signaling pathway. This pathway regulates a wide variety of cellular processes, including proliferation, differentiation, apoptosis, and stress responses. One way to measure the impact of an inhibitor of Ras proteins is to measure downstream phosphorylation of proteins in the MAPK pathway. The MAPK pathway includes extracellular signal-regulated kinases named ERK1 and ERK2, which are serine-threonine kinases that regulate cellular signaling under both normal and oncogenic conditions. ERK expression and hyperactivation via phosphorylation plays a major role in cancer progression and are downstream of Ras proteins. The assay used for measuring the downstream impact of Ras inhibition is the use of a highly sensitive cell-based readout of ERK phosphorylation (pERK) specifically on Threonine (Thr) 202 and Tyrosine (Tyr) 204 in a KRAS G12V dependent lung adenocarcinoma cell line, NCI-H441 (ATCC Cat #HTB-174). The assay described herein is suitable for assessing inhibition of Ras and can be tailored for any of the predominant oncogenic mutations in any isoform of Ras (e.g., KRAS, HRAS, and NRAS) by changing the cell line.
pERK was measured using an advanced pERK assay designed for the robust and highly sensitive quantification of ERK phosphorylation on Thr202/Tyr204. This assay is intended for the simple, rapid, and direct detection of endogenous levels of ERK1/2 in cells, but only when ERK is phosphorylated at Thr202 and Tyr204 (Perkin Elmer Catalog #64AERPEH). pERK was detected in a FRET based sandwich assay format using 2 different specific antibodies, one labelled with Eu3+-Cryptate (donor) and the second with d2 (acceptor). When the dyes are in close proximity, the excitation of the donor with a light source (laser or flash lamp) triggers a Fluorescence Resonance Energy Transfer (FRET) towards the acceptor, which in turn fluoresces at a specific wavelength (665 nm). The specific signal modulates positively in proportion to p-ERK1/2 (Thr202/Tyr204). The simple mix-and-read protocol eliminates all wash steps for faster analysis and high-quality output. Briefly, cells were diluted to the desired concentration per well based on a growth curve showing ˜75% confluence within a 24-hour time period at no less than 95% viability. Cell suspension (24 μL) were added into each well of 384-well culture plate and maintained in 37° C. 5% CO2 incubator overnight prior to assay. All compounds were transferred to stock plates using TECAN (EVO200) liquid handler using DMSO as the solubilizing and dilution agent. Test compounds were transferred onto adherent cells using an Echo655 liquid handler. DMSO was employed as negative control. Cells were incubated with test compounds for 1 hr in a 37° C., 5% CO2 incubator following compound addition. […]
In turn, `[2H]C1([2H])CC2(CC2)[C@@]2(C([2H])([2H])Oc3nc(N4CCOC[C@H]5[C@H](F)[C@H]54)c4cnc(-c5cc(N)cc6ccc(F)c(C#C)c56)c(F)c4n3)C[C@@]([2H])(F)CN12` (single isomer, unassigned) [Example 202] showed a negative logarithm of the IC50 (pIC50) of over 7.30.
`[2H]C1([2H])CC2(CC2)[C@@]2(C([2H])([2H])Oc3nc(N4CCOC[C@H]5[C@H](F)[C@H]54)c4cnc(-c5cc(N)cc6ccc(F)c(C#C)c56)c(F)c4n3)C[C@]([2H])(F)CN12` (single isomer, unassigned) [Example 203] gave a pIC50 of over 7.30.
Still for that read-out and setting: under `[2H]C1([2H])CC2(CC2)[C@]2(C([2H])([2H])Oc3nc(N4CCOC[C@H]5[C@H](F)[C@H]54)c4cnc(-c5cc(N)cc6ccc(F)c(C#C)c56)c(F)c4n3)C[C@]([2H])(F)CN12` (single isomer, unassigned) [Example 204] stands over 7.30; under `[2H]C1([2H])CC2(CC2)[C@]2(C([2H])([2H])Oc3nc(N4CCOC[C@H]5[C@H](F)[C@H]54)c4cnc(-c5cc(N)cc6ccc(F)c(C#C)c56)c(F)c4n3)C[C@@]([2H])(F)CN12` (single isomer, unassigned) [Example 205], over 7.30.

Staying with this test, now noted: Homo sapiens, NCI-H441, cellular pERK HTRF, NCI-H441 (KRAS G12V) cells.
Take `[2H]C([2H])(Oc1nc(N2CCOC[C@H]3[C@H](F)[C@H]32)c2cc(C(F)(F)F)c(-c3cccc4sc(N)c(C#N)c34)c(F)c2n1)[C@@]12CCCN1C[C@H](F)C2` (atropisomer, axis not shown; (aS)) [Example 466, 2-amino-4-((S)-8-fluoro-4-((1S,7S,8S)-8-fluoro-5-oxa-2-azabicyclo[5.1.0]octan-2-yl)-2-(((2R,7aS)-2-fluorotetrahydro-1H-pyrrolizin-7a(5H)-yl)methoxy-d2)-6-(trifluoromethyl)quinazolin-7-yl)benzo[b]thiophene-3-carbonitrile]: the pIC50 was over 7.30.

The test is the same for the next values; noted with them: cellular pERK HTRF, NCI-H441 (KRAS G12V) cells.
`[2H]C([2H])(Oc1nc(N2CCOC[C@H]3[C@H](F)[C@H]32)c2cc(F)c(-c3cc(N)cc4ccc(F)c(C#C)c34)c(C)c2n1)[C@@]12CCCN1C[C@H](F)C2` (atropisomer, axis not shown; (aS)) [Example 435, 5-ethynyl-6-fluoro-4-((S)-6-fluoro-4-((1S,7S,8S)-8-fluoro-5-oxa-2-azabicyclo[5.1.0]octan-2-yl)-2-(((2R,7aS)-2-fluorotetrahydro-1H-pyrrolizin-7a(5H)-yl)methoxy-d2)-8-methylquinazolin-7-yl)naphthalen-2-amine] gave a pIC50 of over 7.30.
Still for that read-out and setting: then `[2H]C([2H])(Oc1nc(N2CCOC[C@H]3[C@H](F)[C@H]32)c2cc(C#N)c(-c3ccc(F)c4sc(N)c(C#N)c34)c(C)c2n1)[C@@]12CCCN1C[C@H](F)C2` (atropisomer, axis not shown; (aS)) [Example 440, (R)-7-(2-amino-3-cyano-7-fluorobenzo[b]thiophen-4-yl)-4-((1S,7S,8S)-8-fluoro-5-oxa-2-azabicyclo[5.1.0]octan-2-yl)-2-(((2R,7aS)-2-fluorotetrahydro-1H-pyrrolizin-7a(5H)-yl)methoxy-d2)-8-methylquinazoline-6-carbonitrile], with over 7.30; and `[2H]C([2H])(Oc1nc(N2CCOC[C@H]3[C@H](F)[C@H]32)c2cc(C#N)c(-c3ccc(F)c4sc(N)c(C#N)c34)c(C)c2n1)[C@@]12CCCN1C[C@H](F)C2` (atropisomer, axis not shown; (aS)) [Example 441, (S)-7-(2-amino-3-cyano-7-fluorobenzo[b]thiophen-4-yl)-4-((1S,7S,8S)-8-fluoro-5-oxa-2-azabicyclo[5.1.0]octan-2-yl)-2-(((2R,7aS)-2-fluorotetrahydro-1H-pyrrolizin-7a(5H)-yl)methoxy-d2)-8-methylquinazoline-6-carbonitrile], with 5.00 to 6.30; and `[2H]C([2H])(Oc1nc(N2CCOC[C@H]3[C@H](F)[C@H]32)c2cc(F)c(-c3ccc(F)c4sc(N)c(C#N)c34)c(C)c2n1)[C@@]12CCCN1C[C@H](F)C2` (atropisomer, axis not shown; (aS)) [Example 450, 2-amino-7-fluoro-4-((S)-6-fluoro-4-((1S,7S,8S)-8-fluoro-5-oxa-2-azabicyclo[5.1.0]octan-2-yl)-2-(((2R,7aS)-2-fluorotetrahydro-1H-pyrrolizin-7a(5H)-yl)methoxy-d2)-8-methylquinazolin-7-yl)benzo[b]thiophene-3-carbonitrile], with 5.00 to 6.30.
In the case of `[2H]C([2H])(Oc1nc(N2CCOC[C@H]3[C@H](F)[C@H]32)c2cc(F)c(-c3ccc(F)c4sc(N)c(C#N)c34)c(C)c2n1)[C@@]12CCCN1C[C@H](F)C2` (atropisomer, axis not shown; (aS)) [Example 451, 2-amino-7-fluoro-4-((R)-6-fluoro-4-((1S,7S,8S)-8-fluoro-5-oxa-2-azabicyclo[5.1.0]octan-2-yl)-2-(((2R,7aS)-2-fluorotetrahydro-1H-pyrrolizin-7a(5H)-yl)methoxy-d2)-8-methylquinazolin-7-yl)benzo[b]thiophene-3-carbonitrile], the pIC50 is over 7.30.
As for `[2H]C([2H])(Oc1nc(N2CCOC[C@H]3[C@H](F)[C@H]32)c2cc(F)c(-c3cc(O)cc4ccc(F)c(C#C)c34)c(F)c2n1)[C@@]12CCCN1C[C@H](F)C2` (atropisomer, axis not shown; (aS)) [Example 453, 4-((R)-6,8-difluoro-4-((1S,7S,8S)-8-fluoro-5-oxa-2-azabicyclo[5.1.0]octan-2-yl)-2-(((2R,7aS)-2-fluorotetrahydro-1H-pyrrolizin-7a(5H)-yl)methoxy-d2)quinazolin-7-yl)-5-ethynyl-6-fluoronaphthalen-2-ol], the pIC50 is over 7.30.
As to `[2H]C([2H])(Oc1nc(N2CCOC[C@H]3[C@H](F)[C@H]32)c2cc(F)c(-c3cc(O)cc4ccc(F)c(C#C)c34)c(F)c2n1)[C@@]12CCCN1C[C@H](F)C2` (atropisomer, axis not shown; (aS)) [Example 454, 4-((S)-6,8-difluoro-4-((1S,7S,8S)-8-fluoro-5-oxa-2-azabicyclo[5.1.0]octan-2-yl)-2-(((2R,7aS)-2-fluorotetrahydro-1H-pyrrolizin-7a(5H)-yl)methoxy-d2)quinazolin-7-yl)-5-ethynyl-6-fluoronaphthalen-2-ol], the pIC50 was 5.00 to 6.30.
`[2H]C([2H])(Oc1nc(N2CCOC[C@H]3[C@H](F)[C@H]32)c2cc(F)c(-c3cc(O)cc4ccc(F)c(C#C)c34)c(C)c2n1)[C@@]12CCCN1C[C@H](F)C2` (atropisomer, axis not shown; (aS)) [Example 467, 5-Ethynyl-6-fluoro-4-((R)-6-fluoro-4-((1S,7S,8S)-8-fluoro-5-oxa-2-azabicyclo[5.1.0]octan-2-yl)-2-(((2R,7aS)-2-fluorotetrahydro-1H-pyrrolizin-7a(5H)-yl)methoxy-d2)-8-methylquinazolin-7-yl)naphthalen-2-ol] had a pIC50 of 5.00 to 6.30.
Compound `[2H]C([2H])(Oc1nc(N2CCOC[C@H]3[C@H](F)[C@H]32)c2cc(C(F)(F)F)c(-c3cccc4sc(N)c(C#N)c34)c(F)c2n1)[C@@]12CCCN1C[C@H](F)C2` (atropisomer, axis not shown; (aS)) [Example 468, 2-amino-4-((R)-8-fluoro-4-((1S,7S,8S)-8-fluoro-5-oxa-2-azabicyclo[5.1.0]octan-2-yl)-2-(((2R,7aS)-2-fluorotetrahydro-1H-pyrrolizin-7a(5H)-yl)methoxy-d2)-6-(trifluoromethyl)quinazolin-7-yl)benzo[b]thiophene-3-carbonitrile] showed a pIC50 of over 7.30.
